# pKi: −log10 of the molar value. Read-outs that look alike come from different tables or passages of the source.
# Legend:
# FKBP12 = FKBP12 (Homo sapiens, UniProt P62942); test: Ki test procedure: inhibition of peptidyl-prolyl isomerase (rotamase) activity, chymotrypsin-coupled assay; type: biochemical
# Description: The inhibition of the prolyl peptidyl cis-trans isomerase activity of FKBP may be measured as an indicator of this affinity.
# Inhibition of the peptidyl-prolyl isomerase (rotamase) activity of the compounds used in the inventive methods and pharmaceutical compositions can be evaluated by known methods described in the literature (Harding et al., Nature, 1989, 341:758-760; Holt et al. J. Am. Chem. Soc., 115:9923-9938).
# The cis-trans isomerization of an alanine-proline bond in a model substrate, N-succinyl-Ala-Ala-Pro-Phe-p-nitroanilide, is monitored spectrophotometrically in a chymotrypsin-coupled assay, which releases paranitroanilide from the trans form of the substrate. The inhibition of this reaction caused by the addition of different concentrations of inhibitor is determined, and the data is analyzed as a change in first-order rate constant as a function of inhibitor concentration to yield the apparent Ki values.
# In a plastic cuvette are added […] of ice cold assay buffer (25 mM HEPES, pH 7.8, 100 mM NaCl), 10 mL of FKBP (2.5 mM in 10 mM Tris-Cl pH 7.5, 100 mM NaCl, 1 mM dithiothreitol), […] of chymotrypsin (50 mg/ml in 1 mM HCl) and […] of test compound at various concentrations in dimethyl sulfoxide. The reaction is initiated by the addition of 5 mL of substrate (succinyl-Ala-Phe-Pro-Phe-para-nitroanilide, 5 mg/mL in 2.35 mM LiCl in trifluoroethanol).
# The absorbance at 390 nm versus time is monitored for 90 seconds using a spectrophotometer and the rate constants are determined from the absorbance versus time data files.
# C57 black 6 mice [1] = test: In vivo hair generation test, Experiment A (shaved C57 black 6 mice, topical); conditions: 30 µM topical in 20% propylene glycol, 3 applications over 5 days, after six weeks
# Description: Care was taken not to nick or cause abrasion to the underlaying dermal layers. The animals were in anagen growth phase, as indicated by the pinkish color of the skin. […] Hair growth was quantitated by the percent of shaved area covered by new hair growth during this time period.
# C57 black 6 mice [2] = test: In vivo hair generation test, Experiment B (shaved C57 Black 6 mice, topical, 14 days); conditions: one micromole per milliliter topical, three times per week, 14 days after initiation of treatment
# Experimental: Care was taken not to nick or cause abrasion to the underlying dermal layers. The animals were in anagen growth phase when shaved. […] The animals were treated three times per week, and hair growth was evaluated 14 days after initiation of treatment.
# FKBP12, sequence (P62942 whole entry, species assumed): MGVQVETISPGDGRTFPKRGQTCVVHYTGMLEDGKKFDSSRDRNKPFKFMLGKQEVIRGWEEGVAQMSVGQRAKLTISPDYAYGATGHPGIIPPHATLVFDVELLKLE
SMILES,pKi (FKBP12),also measured
"CCC(C)(C)C(=O)C(=O)N1CCCCC1C(=O)SCCCc1ccc2ccccc2c1 [Compound 53, 3-(2-Naphthyl)propyl (2R, S) -1-(3,3-dimethyl-2-oxopentanoyl)-2-piperidinecarbothioate]",–,"pKi (FKBP12; apparent Ki, rotamase inhibition): 6.58"
CCC(C)(C)C(=O)C(=O)N1CCCC1C(=O)SCCCC(c1ccc(F)cc1)c1ccc(F)cc1 (stereo not drawn) [Compound 46],6.12,–
CC(C)(C)C(=O)C(=O)N1CCCCC1C(=O)SCCCc1ccccc1 (stereo not drawn) [Compound 29],7.23,–
O=C(C(=O)N1CCC[C@H]1C(=O)SCCc1ccccc1)C1CCCCC1 [Compound 12],6.35,–
O=C(C(=O)N1CCC[C@H]1C(=O)SCCCc1cccnc1)C1CCCCC1 [Compound 35],7.21,–
"CCC(C)(C)C(=O)C(=O)N1CCC[C@H]1C(=O)SCc1csc2ccccc12 [Compound 11, (3-Thioindolyl) methyl (2S) -1-(3,3-dimethyl-1,2-dioxopentyl)-2-pyrrolidinecarbothioate]",–,"pKi (FKBP12; apparent Ki, rotamase inhibition, read-out: Ki): 6.52"
CCC(C)(C)C(=O)C(=O)N1CCCCC1C(=O)SCCCCc1ccccc1 (stereo not drawn) [Compound 59],6.02,–
"CCC(C)(C)C(=O)C(=O)N1CCC[C@H]1C(=O)OCCCc1cccnc1 [GPI 1046, 3-(3-pyridyl)-1-propyl (2s)-1-(3,3-dimethyl-1,2-dioxopentyl)-2-pyrrolidinecarboxylate]",–,hair regrowth in the shaved area (C57 black 6 mice [1]): essentially complete hair regrowth
CCC(C)(C)C(=O)C(=O)N1CCCCC1C(=O)SCCCc1ccccc1 (stereo not drawn) [Compound 60],7.05,–
CCC(C)(C)C(=O)C(=O)N1CCC[C@H]1C(=O)SCCCc1ccccc1Cl [Compound 61],6.86,–
CCC(C)(C)C(=O)C(=O)N1CCCCC1C(=O)SCCCc1cccc(F)c1 (stereo not drawn) [Compound 64],6.79,–
CCC(C)(C)C(=O)C(=O)N1CCC[C@H]1C(=O)SCCCc1cccc(F)c1 [Compound 58],7.10,–
CCC(C)(C)C(=O)C(=O)N1CCC[C@H]1C(=O)SCCC(c1ccccc1)c1ccccc1 [GPI 1234],–,"hair growth (Figure 5, relative hair growth index) (C57 black 6 mice [2]): dramatic hair growth"
O=C(C(=O)N1CCC[C@H]1C(=O)SCCCCc1ccccc1)C1CCCCC1 [Compound 33],5.77,–
CC(C)(C)C(=O)C(=O)N1CCCCC1C(=O)SCCCCc1ccccc1 (stereo not drawn) [Compound 39],6.46,–
CCC(C)(C)C(=O)C(=O)N1CCC[C@H]1C(=O)SCCCc1ccccc1F [Compound 57],7.24,–
CCC(C)(C)C(=O)C(=O)N1CCCC[C@H]1C(=O)SCCC(c1ccccc1)c1ccccc1 [GPI 1511],–,"hair growth (Figure 5, relative hair growth index) (C57 black 6 mice [2]): dramatic hair growth"
COc1ccc(CCCSC(=O)C2CCCCN2C(=O)C(=O)c2ccccc2)cc1 (stereo not drawn) [Compound 43],6.59,–
O=C(C(=O)N1CCCCC1C(=O)SCCc1ccccc1)c1ccccc1 (stereo not drawn) [Compound 14],6.50,–
CCC(C)(C)C(=O)C(=O)N1CCC[C@H]1C(=O)SCCCc1cccc2ccccc12 [Compound 47],7.68,–
CCC(C)(C)C(=O)C(=O)N1CCC[C@H]1C(=O)SCCCc1cccc(Cl)c1 [Compound 54],7.43,–
